The record followed here is article PMC5862592, “CDK8/19 inhibition induces premature G1/S transition and ATR-dependent cell death in prostate cancer cells” (Oncotarget, 2018).

Common to all, as to assay: biochemical
What all share (set-up): KINOMEscan active site-directed competition binding assay (DiscoveRx), 456 kinases, per cent of control at 300 nM
Holding throughout (settings): read-out: Percent of Control (%)

Assay [1] addresses T1, RPS6KA4(Kin.Dom.2-C-terminal) (Homo sapiens, UniProt O75676).
T1 construct: Kin.Dom.2-C-terminal
In outline: (§1)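 Compounds at 300 nmol/L screened against 456 kinases by KINOMEscan, a competition binding assay measuring displacement at the kinase active site.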

The target in assay [2] is T2, PAK7 (Homo sapiens, UniProt Q9P286).
T2 construct: gene PAK5
In a few lines: as §1

The target of assay [3] is CAMKK1 (Homo sapiens, UniProt Q8N5S9). In outline: as §1
Chain of CAMKK1 (Q8N5S9 whole entry): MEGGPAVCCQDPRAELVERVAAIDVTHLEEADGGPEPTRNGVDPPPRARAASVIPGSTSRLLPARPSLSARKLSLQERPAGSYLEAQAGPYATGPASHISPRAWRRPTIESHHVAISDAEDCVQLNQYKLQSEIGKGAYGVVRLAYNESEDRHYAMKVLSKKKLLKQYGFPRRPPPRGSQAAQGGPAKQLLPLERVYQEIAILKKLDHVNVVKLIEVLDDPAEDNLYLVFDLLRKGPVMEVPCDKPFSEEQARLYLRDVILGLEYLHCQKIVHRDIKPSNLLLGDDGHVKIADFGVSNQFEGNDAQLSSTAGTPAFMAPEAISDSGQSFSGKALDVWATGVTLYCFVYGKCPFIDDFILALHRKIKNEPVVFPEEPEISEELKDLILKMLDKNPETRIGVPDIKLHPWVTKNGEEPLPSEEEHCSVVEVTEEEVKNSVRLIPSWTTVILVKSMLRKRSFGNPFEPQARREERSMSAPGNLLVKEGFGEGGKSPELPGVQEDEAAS
For assay [4], the target named is T3, TRKA (Homo sapiens, UniProt P04629).
T3 construct: gene NTRK1
T3 sequence (P04629 whole entry): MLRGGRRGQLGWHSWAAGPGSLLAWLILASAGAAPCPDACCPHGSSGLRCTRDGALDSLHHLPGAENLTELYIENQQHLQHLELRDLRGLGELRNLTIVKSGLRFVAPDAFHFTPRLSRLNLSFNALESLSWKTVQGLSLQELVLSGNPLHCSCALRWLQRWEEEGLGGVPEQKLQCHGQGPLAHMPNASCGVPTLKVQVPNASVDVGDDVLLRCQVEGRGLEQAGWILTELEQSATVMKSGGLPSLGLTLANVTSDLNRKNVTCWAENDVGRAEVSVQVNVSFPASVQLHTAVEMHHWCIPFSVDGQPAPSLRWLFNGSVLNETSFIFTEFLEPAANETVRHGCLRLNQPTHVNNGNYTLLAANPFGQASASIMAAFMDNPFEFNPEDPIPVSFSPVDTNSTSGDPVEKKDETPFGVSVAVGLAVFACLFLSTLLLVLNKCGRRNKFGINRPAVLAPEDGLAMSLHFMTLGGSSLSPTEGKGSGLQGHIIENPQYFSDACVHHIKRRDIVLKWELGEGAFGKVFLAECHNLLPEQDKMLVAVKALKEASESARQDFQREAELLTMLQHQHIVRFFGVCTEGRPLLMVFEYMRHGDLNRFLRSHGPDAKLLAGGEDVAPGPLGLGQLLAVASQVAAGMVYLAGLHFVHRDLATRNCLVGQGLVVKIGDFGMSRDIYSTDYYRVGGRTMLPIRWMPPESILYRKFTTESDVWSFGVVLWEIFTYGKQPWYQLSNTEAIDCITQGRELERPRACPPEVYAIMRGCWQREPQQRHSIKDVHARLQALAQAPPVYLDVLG
In outline:
as §1

For assay [5], the target named is T4, PKAC-beta (Homo sapiens, UniProt P22694).
T4 construct: gene PRKACB
In outline: as §1

Assay [6] has as its target MYLK (Homo sapiens, UniProt Q15746). In a few lines: as §1
Assay [7] addresses CHEK2 (Homo sapiens, UniProt O96017). In outline: as §1
The target in assay [8] is IGF1R (Homo sapiens, UniProt P08069). In a few lines:
as §1

Assay [9] has as its target PLK1 (Homo sapiens, UniProt P53350). In outline: as §1
Assay [10] addresses BTK (Homo sapiens, UniProt Q06187). In outline: as §1
Assay [11] addresses T5, TAK1 (Homo sapiens, UniProt O43318).
T5 construct: gene MAP3K7
In outline:
as §1

Assay [12] concerns the target SRMS (Homo sapiens, UniProt Q9H3Y6). In outline:
as §1

In assay [13] the target is GAK (Homo sapiens, UniProt O14976). In outline:
as §1

Assay [14] concerns the target T6, TYK2(JH2domain-pseudokinase) (Homo sapiens, UniProt P29597).
T6 construct: JH2domain-pseudokinase
In a few lines:
as §1

The target of assay [15] is FGR (Homo sapiens, UniProt P09769). In a few lines:
as §1

Assay [16] concerns the target PIK3CD (Homo sapiens, UniProt O00329). In a few lines: as §1
The target in assay [17] is T7, MEK1 (Homo sapiens, UniProt Q02750).
T7 construct: gene MAP2K1
In outline: as §1

Assay [18] addresses TNK1 (Homo sapiens, UniProt Q13470). In a few lines: as §1
Assay [19] addresses T8, ABL1-nonphosphorylated (Homo sapiens, UniProt P00519).
T8 construct: nonphosphorylated
In a few lines:
as §1

Assay [20] concerns the target INSR (Homo sapiens, UniProt P06213). In outline:
as §1

Assay [21] has as its target BRAF (Homo sapiens, UniProt P15056). In a few lines: as §1
Assay [22] addresses PLK2 (Homo sapiens, UniProt Q9NYY3). In outline:
as §1

Read-outs that look alike come from different tables or passages of the source.

Chain of PLK1 (P53350 whole entry): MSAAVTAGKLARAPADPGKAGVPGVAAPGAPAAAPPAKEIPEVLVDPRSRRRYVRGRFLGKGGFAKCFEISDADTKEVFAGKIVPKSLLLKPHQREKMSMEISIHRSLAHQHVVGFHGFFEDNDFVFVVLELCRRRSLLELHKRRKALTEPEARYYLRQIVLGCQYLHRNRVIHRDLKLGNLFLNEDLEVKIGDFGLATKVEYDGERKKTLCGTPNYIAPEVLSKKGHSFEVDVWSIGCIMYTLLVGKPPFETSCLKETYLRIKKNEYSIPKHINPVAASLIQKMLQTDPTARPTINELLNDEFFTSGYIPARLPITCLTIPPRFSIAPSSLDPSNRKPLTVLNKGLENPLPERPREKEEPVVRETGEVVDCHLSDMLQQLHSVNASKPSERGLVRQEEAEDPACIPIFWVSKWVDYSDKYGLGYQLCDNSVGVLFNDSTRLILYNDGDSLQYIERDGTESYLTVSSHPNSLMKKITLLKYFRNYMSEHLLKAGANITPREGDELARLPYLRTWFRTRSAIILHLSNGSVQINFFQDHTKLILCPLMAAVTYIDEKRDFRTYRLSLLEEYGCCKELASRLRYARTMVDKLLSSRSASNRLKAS
Chain of FGR (P09769 whole entry): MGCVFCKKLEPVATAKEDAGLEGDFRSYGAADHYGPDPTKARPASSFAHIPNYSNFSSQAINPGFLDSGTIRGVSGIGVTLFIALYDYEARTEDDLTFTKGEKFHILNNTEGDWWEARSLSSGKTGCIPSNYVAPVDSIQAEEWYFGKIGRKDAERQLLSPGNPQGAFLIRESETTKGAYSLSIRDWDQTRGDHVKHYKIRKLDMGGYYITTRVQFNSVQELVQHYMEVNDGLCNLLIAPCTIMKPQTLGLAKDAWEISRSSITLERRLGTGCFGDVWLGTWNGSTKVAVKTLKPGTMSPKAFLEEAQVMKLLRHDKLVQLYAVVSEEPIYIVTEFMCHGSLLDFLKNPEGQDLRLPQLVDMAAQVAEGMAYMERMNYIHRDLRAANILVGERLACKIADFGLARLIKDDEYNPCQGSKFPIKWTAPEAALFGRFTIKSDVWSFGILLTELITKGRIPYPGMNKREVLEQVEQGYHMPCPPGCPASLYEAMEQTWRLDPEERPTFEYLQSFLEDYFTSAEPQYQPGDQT
Chain of BRAF (P15056 whole entry): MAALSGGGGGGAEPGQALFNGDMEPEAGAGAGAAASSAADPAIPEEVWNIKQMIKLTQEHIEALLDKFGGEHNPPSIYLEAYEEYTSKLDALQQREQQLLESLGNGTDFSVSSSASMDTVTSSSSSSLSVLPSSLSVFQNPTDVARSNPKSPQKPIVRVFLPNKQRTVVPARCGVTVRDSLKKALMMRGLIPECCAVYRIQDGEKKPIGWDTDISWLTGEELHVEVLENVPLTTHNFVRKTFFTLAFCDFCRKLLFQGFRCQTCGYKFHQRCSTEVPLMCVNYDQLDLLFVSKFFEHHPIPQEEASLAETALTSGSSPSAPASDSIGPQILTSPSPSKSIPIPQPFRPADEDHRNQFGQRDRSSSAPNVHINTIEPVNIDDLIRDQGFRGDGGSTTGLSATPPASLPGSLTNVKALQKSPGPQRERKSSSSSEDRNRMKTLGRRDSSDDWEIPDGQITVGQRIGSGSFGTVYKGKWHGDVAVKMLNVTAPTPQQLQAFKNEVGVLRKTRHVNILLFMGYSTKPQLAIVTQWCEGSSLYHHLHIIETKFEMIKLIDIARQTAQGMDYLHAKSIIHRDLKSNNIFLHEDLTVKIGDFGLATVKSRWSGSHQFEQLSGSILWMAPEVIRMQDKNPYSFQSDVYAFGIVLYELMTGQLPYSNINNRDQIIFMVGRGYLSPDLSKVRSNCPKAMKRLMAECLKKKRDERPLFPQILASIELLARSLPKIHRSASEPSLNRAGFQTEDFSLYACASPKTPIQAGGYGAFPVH
Chain of CHEK2 (O96017 whole entry): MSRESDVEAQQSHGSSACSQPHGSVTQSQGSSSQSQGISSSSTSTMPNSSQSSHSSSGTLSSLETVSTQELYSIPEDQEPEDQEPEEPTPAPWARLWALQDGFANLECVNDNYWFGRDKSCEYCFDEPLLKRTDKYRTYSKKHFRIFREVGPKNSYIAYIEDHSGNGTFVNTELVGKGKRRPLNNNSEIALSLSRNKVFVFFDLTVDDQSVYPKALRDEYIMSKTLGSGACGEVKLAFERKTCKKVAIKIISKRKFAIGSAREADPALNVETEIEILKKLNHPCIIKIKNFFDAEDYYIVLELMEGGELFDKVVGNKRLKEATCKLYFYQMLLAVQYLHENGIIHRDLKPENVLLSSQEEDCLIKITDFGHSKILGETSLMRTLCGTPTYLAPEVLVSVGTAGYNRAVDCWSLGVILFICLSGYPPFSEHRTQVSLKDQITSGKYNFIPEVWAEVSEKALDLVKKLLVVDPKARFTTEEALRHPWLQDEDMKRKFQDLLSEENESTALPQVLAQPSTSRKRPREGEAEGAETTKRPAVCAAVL
Chain of PIK3CD (O00329 whole entry): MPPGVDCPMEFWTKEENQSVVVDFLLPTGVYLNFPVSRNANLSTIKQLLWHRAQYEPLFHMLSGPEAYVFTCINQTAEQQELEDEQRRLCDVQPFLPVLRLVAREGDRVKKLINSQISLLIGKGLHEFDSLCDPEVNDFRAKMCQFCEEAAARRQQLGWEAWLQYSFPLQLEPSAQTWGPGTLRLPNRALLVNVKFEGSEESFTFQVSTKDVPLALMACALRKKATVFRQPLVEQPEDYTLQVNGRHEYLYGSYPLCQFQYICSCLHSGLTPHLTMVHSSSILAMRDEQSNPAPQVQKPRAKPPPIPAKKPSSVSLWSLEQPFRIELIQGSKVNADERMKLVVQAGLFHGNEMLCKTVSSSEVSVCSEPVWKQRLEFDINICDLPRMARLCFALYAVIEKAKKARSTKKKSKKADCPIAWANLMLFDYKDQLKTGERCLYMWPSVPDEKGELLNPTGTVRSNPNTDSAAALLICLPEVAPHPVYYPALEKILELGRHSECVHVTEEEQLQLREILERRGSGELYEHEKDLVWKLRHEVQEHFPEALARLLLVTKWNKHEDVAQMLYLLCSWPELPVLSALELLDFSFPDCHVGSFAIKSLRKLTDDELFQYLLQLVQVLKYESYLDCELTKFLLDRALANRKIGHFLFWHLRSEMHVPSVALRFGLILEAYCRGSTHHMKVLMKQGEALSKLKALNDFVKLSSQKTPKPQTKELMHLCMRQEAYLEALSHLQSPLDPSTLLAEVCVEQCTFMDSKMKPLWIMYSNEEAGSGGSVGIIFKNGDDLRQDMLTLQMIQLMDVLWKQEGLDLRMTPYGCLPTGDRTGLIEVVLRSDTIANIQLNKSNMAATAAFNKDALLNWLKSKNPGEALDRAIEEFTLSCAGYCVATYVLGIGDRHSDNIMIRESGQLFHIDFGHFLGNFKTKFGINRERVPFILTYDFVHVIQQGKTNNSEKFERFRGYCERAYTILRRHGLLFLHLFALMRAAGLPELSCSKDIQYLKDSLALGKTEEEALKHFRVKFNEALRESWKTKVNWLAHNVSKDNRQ

For the compound `O=C(/C=C/c1cnccc1-c1ccc(F)cc1)Nc1ccc(CCc2nnco2)cc1` [T-418, (2E)-3-(4-(4-fluorophenyl)pyridin-3-yl)-N-(4-(2-(1,3,4-oxadiazol-2-yl)ethyl)phenyl)acrylamide], the remaining binding at 0.3 µM amounted to 86% in [1] (sheet T-418); 100% in assay [2] (sheet T-418); 100% in [3] (sheet T-418); 92% in assay [4] (sheet T-418); 88% in [5] (sheet T-418); 100% in [6] (sheet T-418). The remaining binding at 0.3 µM in assay [7] (sheet T-418) is 89%; in [8] (sheet T-418), 87%; in assay [9] (sheet T-418), 100%; in assay [10] (sheet T-418) it was 79%; in assay [11] (sheet T-418) it was 100%; in assay [12] (sheet T-418), 100%. The remaining binding at 0.3 µM in assay [13] (sheet T-418) was 100%; in assay [14] (sheet T-418), 100%; in assay [15] (sheet T-418) it was 93%; in assay [16] (sheet T-418), 99%; in assay [17] (sheet T-418) it was 100%; in [18] (sheet T-418) it was 87%. Also, the remaining binding at 0.3 µM came to 89% in assay [19] (sheet T-418), 69% in assay [20] (sheet T-418), 100% in assay [21] (sheet T-418) and 57% in [22] (sheet T-418).

In the case of `Cc1ncccc1Oc1sc(C(N)=O)c2c1-c1c(cnn1C)CC2` [T-474, 1-methyl-8-((2-methylpyridin-3-yl)oxy)-4,5-dihydro-1H-thieno[3,4-g]indazole-6-carboxamide], the remaining binding at 0.3 µM was found to be 95% in assay [1]; 100% in [2]; 100% in assay [3]; 95% in assay [4]; 100% in [5]; 100% in assay [6]. Besides, the remaining binding at 0.3 µM is 100% in assay [7]; 98% in [8]; 100% in assay [9]; 81% in [10]; 100% in assay [11]; 100% in assay [12]. The remaining binding at 0.3 µM in assay [13] was 92%; in assay [14], 100%; in [15], 100%; in [16] it was 88%; in assay [17] it was 100%; in assay [18], 98%. In addition, the remaining binding at 0.3 µM in assay [19] amounted to 87%; in assay [20] it was 66%; in assay [21], 100%; in assay [22], 67%.
